Measured values published in ChEMBL document CHEMBL1201862, “PubChem BioAssay data set” (2004).
The source made the active and inactive calls.

Key:
[1] = biological target: Peroxisome proliferator-activated receptor gamma/Nuclear receptor coactivator 1 (Homo sapiens, UniProt P37231); assay: (§1) TR-FRET dose response biochemical High Throughput Screening assay for agonists of the steroid receptor coactivator 1 (SRC-1) recruitment by the peroxisome proliferator-activated receptor gamma (PPAR gamma): non-selective agonists. [Related pubchem assays (depositor defined):AID1300, AID1808, AID504735, AID631]; assay type: protein assay
[2] = biological target: Peroxisome proliferator-activated receptor gamma/Nuclear receptor coactivator 3 (Homo sapiens, UniProt P37231); assay: as §1, with “3 (SRC-3)” for “1 (SRC-1)”, “assays: 1301 (Confirmation screen.), 1048 (Primary screen.)]” for “assays (depositor defined):AID1300, AID1808, AID504735, AID631]”; assay type: functional
[3] = biological target: Peroxisome proliferator-activated receptor gamma/Nuclear receptor coactivator 2 (Homo sapiens, UniProt P37231); assay: TR-FRET dose response biochemical High Throughput Screening assay for agonists of the steroid receptor coactivator 2 (SRC-2) recruitment by the peroxisome proliferator-activated receptor gamma (PPAR gamma): non-selective agonists. [Related pubchem assays: 1297, 1032 ]; assay type: functional
[4] = biological target: T1, Polyadenylate-binding protein 1 (Homo sapiens, UniProt P11940); assay: MLLE binding blockers, Cy5 peptide tracer – biochemical, fluorescence polarization, Cy5-PAM2 peptide, secondary, miRNA deadenylation inhibitor project, dose response (AID 602260); assay type: functional; settings: read-out: IC50_Mean
[5] = biological target: T1, Polyadenylate-binding protein 1; assay: MLLE domain peptide-binding blockers, IC50 – biochemical, fluorescence polarization, FITC-PAM2 peptide, dose response (AID 602259); assay type: functional; settings: read-out: IC50_Mean
[6] = biological target: T2, Fibrinogen beta chain (Homo sapiens, UniProt P02675); assay: Fluorescence polarization-based biochemical high throughput dose response assay to identify inhibitors that disrupt the binding of a cyclic peptide (Tn6) to the fibrin proteolytic product D-Dimer and fragment E complex [DD(E )].
[7] = biological target: T2, Fibrinogen beta chain; assay: Fluorescence polarization-based biochemical high throughput dose response assay to identify inhibitors that disrupt the binding of a cyclic peptide (Tn7) to the fibrin proteolytic product D-Dimer and fragment E complex [DD(E )].
[8] = biological target: Bifunctional protein GlmU (Mycobacterium tuberculosis, UniProt P9WMN3); assay: Inhibitors of Mycobacterial Glucosamine-1-phosphate acetyl transferase (GlmU). Secondary screen.; parameters: species or system Mycobacterium tuberculosis H37Rv
[9] = luciferase reporter signal suppression in cells – H4 neuroglioma cells, luminescence, dose response (AID 1990); assay type: functional, cell-based
[10] = Luminescence Cell-Based Dose Response HTS to Identify Inhibitors of 5'UTR Stem-Loop Driven Prion Protein mRNA Translation in H4 Neuroglioblastoma Cells. [Related pubchem assays: 1827 (Project Summary), 1813 (Primary HTS)]; assay type: functional
[11] = alpha-synuclein stem-loop luciferase translation blockers – H4 neuroglioma cells, luminescence, confirmation (AID 1988); assay type: functional, cell-based
[12] = biological target: Luciferin 4-monooxygenase (Photinus pyralis, UniProt P08659); assay: inhibition of purified Photinus pyralis luciferase – biochemical, luminescence, dose response (AID 1891)
[13] = Luminescence Cell-Based Dose Confirmation HTS to Identify Inhibitors of Platelet Dense Granule Release. [Related pubchem assays: 1663 (Primary HTS), 1678 (Summary of Project)]; assay type: functional
[14] = Trypanosoma cruzi growth suppression in host cells – NIH3T3 host cells, beta-gal luminescence, confirmation (AID 2044); assay type: functional, cell-based;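 note: intracellular parasites grown in NIH/3T3 mouse fibroblasts as host cells; luminescent beta-galactosidase reporter signal from transgenic T. cruzi replicating inside host cells; inhibitors lower the luminescence signal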
[15] = biological target: Alkaline phosphatase, placental type (Homo sapiens, UniProt P05187); assay: human placental alkaline phosphatase inhibition – biochemical, luminescence, confirmation (AID 1512); assay type: functional
[16] = biological target: T3, Alkaline phosphatase, tissue-nonspecific isozyme (Homo sapiens, UniProt P05186); assay: potency against alkaline phosphatase TNAP – biochemical, luminescent, dose response, SAR follow-up (AID 1056)
T3 sequence (P05186 whole entry): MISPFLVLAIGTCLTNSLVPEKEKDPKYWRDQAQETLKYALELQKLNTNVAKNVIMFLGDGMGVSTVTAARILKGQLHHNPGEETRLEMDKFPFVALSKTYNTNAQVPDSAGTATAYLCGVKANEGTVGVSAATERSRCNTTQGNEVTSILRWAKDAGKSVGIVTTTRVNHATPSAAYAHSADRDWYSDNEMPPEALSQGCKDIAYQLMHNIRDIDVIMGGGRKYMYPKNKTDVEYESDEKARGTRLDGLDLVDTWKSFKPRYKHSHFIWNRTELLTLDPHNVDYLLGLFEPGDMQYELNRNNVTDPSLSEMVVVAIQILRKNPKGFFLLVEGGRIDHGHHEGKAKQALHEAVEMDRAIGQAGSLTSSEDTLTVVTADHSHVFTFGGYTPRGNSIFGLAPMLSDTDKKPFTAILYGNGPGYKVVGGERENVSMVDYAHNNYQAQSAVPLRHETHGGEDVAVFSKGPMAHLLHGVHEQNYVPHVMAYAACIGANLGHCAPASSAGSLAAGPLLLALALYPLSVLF

[17] = biological target: Oxysterols receptor LXR-beta (Homo sapiens, UniProt P55055); assay type: functional, cell-based;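 note: Cell-based luminescence dose-response assay of agonist activity at LXR, run as a confirmatory counterscreen to a daf-12 agonist screen; HEK293 cells with Gal4-LXR fusion and GAL4-driven luciferase reporter; agonist potency from rising luciferase signal of a Gal4-LXR reporter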
[18] = cells
[19] = biological target: Eukaryotic translation initiation factor 4E (Mus musculus, UniProt P63073); assay: blockers of eIF4G binding by eIF4E – biochemical, TR-FRET, dose response (AID 855); assay type: functional;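 note: potency for disrupting eIF4E binding to eIF4GI seen as loss of FRET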
[20] = biological target: Glutathione-S-transferase (Schistosoma japonicum, UniProt Q26513); assay: GST-antibody interaction or FRET quenching – biochemical, TR-FRET, artefact control for Vif-APOBEC3G degradation inhibitor project, dose response (AID 1117362); assay type: functional
[21] = system: BJ; assay: BJ-TERT fibroblast viability loss – cell-based, RAS-independent, luminescence, dose response (AID 1933); assay type: functional; settings: Homo sapiens
[22] = system: BJ; assay: cells; assay type: functional, cell-based; settings: Homo sapiens
[23] = system: BJ; assay: BJ-TERT-LT-ST fibroblast viability loss – cell-based, RAS-independent, luminescence, dose response (AID 1935); assay type: functional; settings: Homo sapiens;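 note: BJ fibroblasts immortalized with TERT plus LT and ST oncogenes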
[24] = DRD fibroblast viability loss – cell-based, non-viral oncogenic, luminescence, dose response (AID 1934); assay type: functional; settings: Homo sapiens
[25] = toxicity toward HEK293 cells – cell-based, dry powder samples, cytotoxicity control, dose response (AID 720567); assay type: functional
[26] = glucagon-like peptide-1 release potency in STC-1, concentration-response, half-maximal inhibitory concentration in the STC-1 line (AID 1117345); assay type: functional, cell-based
[27] = Potency on glucagon-like peptide 1 release, dose-response in NCI-H716 cell line, half maximal inhibitory concentration (AID 1117344); assay type: functional, cell-based
[28] = biological target: NAD-dependent protein deacylase sirtuin-5, mitochondrial (Homo sapiens, UniProt Q9NXA8); assay: sirtuin-5 deacylation blockers, concentration series – biochemical, fluorescence imaging, cherry-pick, set 5, dose response (AID 720591);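 note: desuccinylation of succinyl peptide AMC substrate read as fluorescence after trypsin release; potency of inhibitors that lower fluorescence and may act on trypsin instead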
NAD-dependent protein deacylase sirtuin-5, mitochondrial, sequence (Q9NXA8 whole entry): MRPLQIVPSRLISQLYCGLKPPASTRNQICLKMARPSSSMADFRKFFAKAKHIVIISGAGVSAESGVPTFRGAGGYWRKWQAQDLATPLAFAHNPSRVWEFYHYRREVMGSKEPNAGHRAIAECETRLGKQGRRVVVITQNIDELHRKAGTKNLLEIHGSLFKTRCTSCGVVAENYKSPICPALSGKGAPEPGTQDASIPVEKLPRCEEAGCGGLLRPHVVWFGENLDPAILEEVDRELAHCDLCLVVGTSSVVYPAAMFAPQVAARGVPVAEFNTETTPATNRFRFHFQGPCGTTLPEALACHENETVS

T1 sequence (P11940 whole entry, the tested form may be a part): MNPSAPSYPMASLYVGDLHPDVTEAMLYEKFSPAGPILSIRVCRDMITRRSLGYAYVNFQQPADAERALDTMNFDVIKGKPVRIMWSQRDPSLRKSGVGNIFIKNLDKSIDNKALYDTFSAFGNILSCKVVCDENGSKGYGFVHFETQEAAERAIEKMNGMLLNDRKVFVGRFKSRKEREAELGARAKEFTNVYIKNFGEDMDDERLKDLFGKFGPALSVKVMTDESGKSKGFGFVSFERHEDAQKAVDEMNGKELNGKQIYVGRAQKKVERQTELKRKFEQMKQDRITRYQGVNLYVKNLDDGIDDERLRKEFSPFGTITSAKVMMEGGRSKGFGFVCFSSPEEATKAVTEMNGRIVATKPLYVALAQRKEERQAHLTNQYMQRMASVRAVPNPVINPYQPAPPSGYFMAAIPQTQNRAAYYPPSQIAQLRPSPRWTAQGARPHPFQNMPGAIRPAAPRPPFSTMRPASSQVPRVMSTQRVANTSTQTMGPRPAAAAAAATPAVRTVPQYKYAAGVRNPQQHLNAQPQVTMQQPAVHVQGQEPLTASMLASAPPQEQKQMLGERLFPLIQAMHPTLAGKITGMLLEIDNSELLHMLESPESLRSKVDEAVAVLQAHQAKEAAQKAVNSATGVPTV
T2 sequence (P02675 whole entry, the tested form may be a part): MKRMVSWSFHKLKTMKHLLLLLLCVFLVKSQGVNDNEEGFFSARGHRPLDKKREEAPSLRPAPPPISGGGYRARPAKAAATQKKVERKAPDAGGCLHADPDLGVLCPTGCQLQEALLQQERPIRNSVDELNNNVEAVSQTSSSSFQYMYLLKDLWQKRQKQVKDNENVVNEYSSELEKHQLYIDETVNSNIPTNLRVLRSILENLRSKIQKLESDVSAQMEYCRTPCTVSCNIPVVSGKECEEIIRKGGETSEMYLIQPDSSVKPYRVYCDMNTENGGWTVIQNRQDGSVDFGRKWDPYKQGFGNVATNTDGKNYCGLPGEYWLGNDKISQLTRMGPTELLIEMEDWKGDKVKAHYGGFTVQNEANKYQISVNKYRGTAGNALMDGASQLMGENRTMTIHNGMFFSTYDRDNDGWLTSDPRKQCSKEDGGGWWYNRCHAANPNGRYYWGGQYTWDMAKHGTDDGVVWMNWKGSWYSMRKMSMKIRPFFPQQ
Glutathione-S-transferase, sequence (Q26513 whole entry): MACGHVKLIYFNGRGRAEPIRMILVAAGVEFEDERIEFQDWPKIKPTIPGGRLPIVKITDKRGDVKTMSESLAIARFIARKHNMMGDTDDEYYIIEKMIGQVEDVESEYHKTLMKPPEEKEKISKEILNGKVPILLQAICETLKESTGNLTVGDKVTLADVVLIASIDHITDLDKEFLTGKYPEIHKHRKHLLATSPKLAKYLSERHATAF
Alkaline phosphatase, placental type, sequence (P05187 whole entry): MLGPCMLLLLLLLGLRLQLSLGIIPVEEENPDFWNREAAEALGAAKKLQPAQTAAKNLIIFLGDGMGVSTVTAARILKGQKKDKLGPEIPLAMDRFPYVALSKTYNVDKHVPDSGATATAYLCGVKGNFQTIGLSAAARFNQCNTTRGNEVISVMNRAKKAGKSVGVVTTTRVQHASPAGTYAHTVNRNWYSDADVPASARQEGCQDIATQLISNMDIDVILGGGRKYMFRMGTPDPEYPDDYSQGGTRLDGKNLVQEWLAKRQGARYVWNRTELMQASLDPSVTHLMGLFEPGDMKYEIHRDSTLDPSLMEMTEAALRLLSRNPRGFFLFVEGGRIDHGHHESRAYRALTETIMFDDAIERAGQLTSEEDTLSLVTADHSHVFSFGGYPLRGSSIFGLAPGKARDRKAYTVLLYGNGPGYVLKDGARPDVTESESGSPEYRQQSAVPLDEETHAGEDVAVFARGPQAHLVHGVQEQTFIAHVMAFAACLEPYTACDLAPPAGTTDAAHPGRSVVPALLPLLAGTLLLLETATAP
Luciferin 4-monooxygenase, sequence (P08659 whole entry): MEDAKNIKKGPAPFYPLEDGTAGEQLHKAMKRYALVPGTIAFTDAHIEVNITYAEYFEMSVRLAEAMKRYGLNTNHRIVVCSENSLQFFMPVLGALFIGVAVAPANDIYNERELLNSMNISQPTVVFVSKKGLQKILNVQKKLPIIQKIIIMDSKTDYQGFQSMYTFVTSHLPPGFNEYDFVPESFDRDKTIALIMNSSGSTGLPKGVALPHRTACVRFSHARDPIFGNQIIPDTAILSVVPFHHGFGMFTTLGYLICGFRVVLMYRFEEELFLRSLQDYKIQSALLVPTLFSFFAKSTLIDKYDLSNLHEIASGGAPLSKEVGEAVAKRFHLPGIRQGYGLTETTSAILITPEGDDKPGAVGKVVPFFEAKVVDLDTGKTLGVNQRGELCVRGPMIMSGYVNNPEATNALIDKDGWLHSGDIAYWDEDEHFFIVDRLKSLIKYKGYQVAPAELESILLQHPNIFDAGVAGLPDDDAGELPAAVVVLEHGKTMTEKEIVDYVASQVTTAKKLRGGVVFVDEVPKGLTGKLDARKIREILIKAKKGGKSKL
Oxysterols receptor LXR-beta, sequence (P55055 whole entry, the tested form may be a part): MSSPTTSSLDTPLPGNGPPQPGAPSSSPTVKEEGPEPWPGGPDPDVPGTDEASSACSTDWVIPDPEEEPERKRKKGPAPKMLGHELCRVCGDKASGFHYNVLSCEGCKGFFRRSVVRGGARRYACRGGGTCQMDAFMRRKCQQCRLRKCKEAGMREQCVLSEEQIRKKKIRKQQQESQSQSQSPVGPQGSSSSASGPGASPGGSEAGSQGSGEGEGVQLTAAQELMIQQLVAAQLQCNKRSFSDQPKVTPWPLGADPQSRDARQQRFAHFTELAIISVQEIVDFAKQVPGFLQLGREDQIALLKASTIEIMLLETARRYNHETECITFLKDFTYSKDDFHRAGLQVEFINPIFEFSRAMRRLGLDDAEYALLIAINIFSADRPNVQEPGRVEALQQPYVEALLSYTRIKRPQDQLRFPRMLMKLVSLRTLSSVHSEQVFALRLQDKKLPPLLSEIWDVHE
Eukaryotic translation initiation factor 4E, sequence (P63073 whole entry): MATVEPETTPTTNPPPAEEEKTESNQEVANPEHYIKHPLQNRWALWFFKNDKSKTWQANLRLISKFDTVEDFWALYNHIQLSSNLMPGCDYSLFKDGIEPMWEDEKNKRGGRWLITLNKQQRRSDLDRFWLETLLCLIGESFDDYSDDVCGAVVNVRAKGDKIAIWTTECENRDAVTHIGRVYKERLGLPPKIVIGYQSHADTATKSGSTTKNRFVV
Bifunctional protein GlmU, sequence (P9WMN3 whole entry): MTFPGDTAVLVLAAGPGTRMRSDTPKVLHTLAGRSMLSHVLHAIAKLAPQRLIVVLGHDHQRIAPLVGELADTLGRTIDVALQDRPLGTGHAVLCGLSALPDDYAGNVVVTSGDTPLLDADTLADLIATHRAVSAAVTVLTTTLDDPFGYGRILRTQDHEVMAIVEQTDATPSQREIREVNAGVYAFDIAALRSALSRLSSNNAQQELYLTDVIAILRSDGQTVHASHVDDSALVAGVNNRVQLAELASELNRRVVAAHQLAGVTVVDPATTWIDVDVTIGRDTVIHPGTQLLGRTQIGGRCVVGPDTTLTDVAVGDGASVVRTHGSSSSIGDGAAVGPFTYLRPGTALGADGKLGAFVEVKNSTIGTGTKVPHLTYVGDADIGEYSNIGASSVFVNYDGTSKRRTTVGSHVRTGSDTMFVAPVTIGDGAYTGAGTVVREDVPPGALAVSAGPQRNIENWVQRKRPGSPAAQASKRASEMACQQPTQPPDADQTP

SMILES: Cc1cc2cc(CNC(=O)c3ccc(S(=O)(=O)N4CCOCC4)cc3)ccc2n1C
- EC50 [1]: 6.78 µM (active)
- EC50 [2]: 15.7 µM (not active)
- EC50 [3]: 6.71 µM (active)
- IC50 [4]: > 66 µM (inactive)
- IC50 [5]: 49.6 µM (inactive)
- IC50 [6]: 10.6 µM (inactive)
- IC50 [7]: > 83.3 µM (inactive)

SMILES: O=S1(=O)c2ccccc2N=NN1Cc1ccc(Cl)c(Cl)c1
- IC50 [8]: 38.7 µM (active)

SMILES: Clc1ccc(/C=C/c2nc3ccccc3[nH]2)c(Cl)c1
- EC50 [9]: 0.55 µM (active)
- EC50 [10]: 7.08 µM (active)
- EC50 [11]: 2.85 µM (inconclusive)
- EC50 [12]: 0.519 µM (active)
- EC50 [13]: 8.31 µM (active)
- EC50 [14]: 3.15 µM (active)
- IC50 [15]: 2.85 µM (active)
- IC50 [16]: 5.78 µM (active)
- EC50 [17]: > 67.5 µM (inactive)
- EC50 [18]: > 67.5 µM (inactive)

SMILES: CN(C)[C@@H]1C(=O)C(C(=O)NCN2CCCC2)=C(O)[C@@]2(O)C(O)=C3C(=O)c4c(O)cccc4[C@@](C)(O)C3CC12 (some centres not stated)
- IC50 [19]: 12.3 µM (active)
- IC50 [20]: > 100 µM (active)

SMILES: CCC1=Nc2cc(C(=O)NCCCOC)ccc2Sc2ccccc21
- EC50 [9]: 8.66 µM (inconclusive)
- EC50 [21]: 1.07 µM (active)
- EC50 [10]: 16.1 µM (active)
- EC50 [11]: 0.127 µM (active)
- EC50 [22]: 13.2 µM (active)
- EC50 [14]: 5.01 µM (active)
- EC50 [23]: 0.754 µM (inconclusive)
- EC50 [24]: 0.944 µM (active)
- AC50 [25]: 9.95 µM (active)

SMILES: c1ccc2ccccc2c1
- IC50 [26]: > 40 µM (inactive)
- IC50 [27]: 20.8 µM (inactive)

SMILES: Cc1ccc(S(=O)(=O)N2[C@@H](c3ccccc3)C(C(=O)O)=CC[C@H]2c2ccc(Cl)cc2)cc1
- AC50 [28]: > 30 µM (inactive)
